# pIC50: −log10 of the molar value. Where a name gives a salt, the structure may show the parent alone.
# How the values were obtained:
# [1] = biological target: T1, sRAGE binding to S100b (Homo sapiens, UniProt Q15109); test: RAGE binding assay (ELISA), S100b as the RAGE ligand; conditions: compounds tested in hydrochloride salt form, concentration at which 50% signal has been inhibited
# T1 construct: extracellular domain can be isolated by proteolysis of RAGE to generate soluble RAGE (sRAGE) comprised of the V and C domains
# Method: (§1) The following assay method may be used to identify compounds of Formula (I) or pharmaceutically acceptable salts thereof which are useful as inhibitors of binding of physiological RAGE ligands, such as S100b and β-amyloid, to RAGE.
# (§2) S100b, β-amyloid, or CML (500 ng/100 μL/well) in 100 mM sodium bicarbonate/sodium carbonate buffer (pH 9.8) is loaded onto the wells of a NUNC Maxisorp flat bottom 96-well microtitre plate. The plate is incubated at 4° C. overnight. The wells are aspirated and treated with 50 mM imidazole buffer saline (pH 7.2) (with 5 mM CaCl2/MgCl2) containing 1% bovine serum albumin (BSA) (300 μL/well) for 1 h at RT. The wells are aspirated.
# (§3) Test compounds are dissolved in nanopure water (concentration: 10-100 μM). DMSO may be used as co-solvent. 25 μL of test compound solution in 4% DMSO is added, along with 75 μL sRAGE (6 nM FAC) to each well and samples are incubated for 1 h at 37° C. The wells are washed several times with 155 mM NaCl pH 7.2 buffer saline and are soaked for several seconds between each wash.
# (§4) Non-radioactive detection is performed by adding:
# (§5) 10 μL Biotinylated goat F(ab′)2 Anti-mouse IgG. (8.0×10-4 mg/mL, FAC), 5 μL Alk-phos-Streptavidin (3×10-3 mg/mL FAC), 0.42 μL per 5 mL Monoclonal antibody for sRAGE (FAC 6.0×10-3 mg/mL) to 5 mL 50 mM imidazole buffer saline (pH 7.2) containing 0.2% bovine serum albumin and 5 mM CaCl2. The mixture is incubated for 30 minutes at RT.
# (§6) 100 μL of complex is added to each well and incubation is allowed to proceed at rt for 1 h. Wells are washed several times with wash buffer and soaked several seconds between each wash. 100 μL 1 mg/mL (pNPP) in 1 M diethanolamine (pH adjusted to 9.8 with HCl) is added. Color is allowed to develop in the dark for 30 min to 1 h at rt. The reaction is quenched with 10 μL of stop solution (0.5-1.0 N NaOH in 50% ethanol) and the absorbance is measured spectrophotometrically with a microplate reader at 405 nm.
# (§7) The IC50 (μM) value in the ELISA assay represents the concentration of compound at which 50% signal has been inhibited.
# [2] = biological target: T2, sRAGE binding to β-amyloid (Homo sapiens, UniProt Q15109); test: RAGE binding assay (ELISA), β-amyloid as the RAGE ligand; conditions: compounds tested in hydrochloride salt form, concentration at which 50% signal has been inhibited
# T2 construct: extracellular domain can be isolated by proteolysis of RAGE to generate soluble RAGE (sRAGE) comprised of the V and C domains
# Method: as §1, §2, §3, §4, §5, §6, §7
# T1 sequence (Q15109 23-342 limits assumed): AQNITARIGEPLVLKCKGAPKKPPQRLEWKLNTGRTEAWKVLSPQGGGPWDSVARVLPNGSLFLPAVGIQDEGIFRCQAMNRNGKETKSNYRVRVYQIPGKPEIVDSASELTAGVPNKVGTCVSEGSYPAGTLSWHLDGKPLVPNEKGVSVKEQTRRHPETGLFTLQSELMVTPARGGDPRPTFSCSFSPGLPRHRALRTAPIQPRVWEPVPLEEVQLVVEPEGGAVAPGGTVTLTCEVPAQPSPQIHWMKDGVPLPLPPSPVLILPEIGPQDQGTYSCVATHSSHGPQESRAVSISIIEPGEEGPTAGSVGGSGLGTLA
# T2 sequence (Q15109 23-342 limits assumed): as above
Structure (SMILES),pIC50 [1],pIC50 [2]
"CCCCc1nnc(OCC[C@H]2CCCCN2C)cc1-c1ccc(OC2CCCCC2)cc1 [Example 32, 3-Butyl-4-(4-cyclohexyloxy-phenyl)-6-[2-((R)-1-methyl-piperidin-2-yl)-ethoxy]-pyridazine dihydrochloride]",5.56,5.75
"CCCCc1nnc(C(=O)NCC2CN(C)CCC2OC)cc1-c1ccc(OC2CCCCC2)cc1 (centres unmarked) [Example 101, 6-Butyl-5-(4-cyclohexyloxy-phenyl)-pyridazine-3-carboxylic acid (4-methoxy-1-methyl-piperidin-3-ylmethyl)-amide dihydrochloride]",6.18,6.03
"CCCCc1nnc(O[C@@H]2CN(C)CC[C@H]2C(F)F)cc1-c1ccc(OC2CCCCC2)cc1 (racemic) [Example 48, (±)-trans-3-butyl-4-(4-cyclohexyloxy-phenyl)-6-(4-difluoromethyl-1-methyl-piperidin-3-yloxy)-pyridazine dihydrochloride]",5.59,5.05
"CCCCc1nnc(OCCCN2CCCCC2)cc1-c1ccc(OCc2ccccc2)cc1 [Example 5, 4-(4-Benzyloxy-phenyl)-3-butyl-6-(3-piperidin-1-yl-propoxy)-pyridazine dihydrochloride]",5.51,5.20
"CCCCc1nnc(OC[C@H]2CN(C)CC[C@H]2O)cc1-c1ccc(OC2CCCCC2)cc1 (racemic) [Example 43, (±)-cis-3-[6-Butyl-5-(4-cyclohexyloxy-phenyl)-pyridazin-3-yloxymethyl]-1-methyl-piperidin-4-ol dihydrochloride]",5.68,6.08
"CCCCc1nnc(OC[C@H]2CCN(C)C[C@H]2OC)cc1-c1ccc(OC2CCCCC2)cc1 (racemic) [Example 35, (±)-cis-3-Butyl-4-(4-cyclohexyloxy-phenyl)-6-(3-methoxy-1-methyl-piperidin-4-ylmethoxy)-pyridazine dihydrochloride]",6.13,6.13
"CCCCc1nnc(C(=O)NC[C@H]2CCN(C)C[C@H]2F)cc1-c1ccc(OC2CCCCC2)cc1 (racemic) [Example 110, (±)-cis-6-Butyl-5-(4-cyclohexyloxy-phenyl)-pyridazine-3-carboxylic acid (3-fluoro-1-methyl-piperidin-4-ylmethyl)-amide dihydrochloride]",5.98,5.87
"CCCCc1nnc(C(=O)N2CCC(O)C(CN(C)C)C2)cc1-c1ccc(OC2CCCCC2)cc1 (centres unmarked) [Example 106, [6-Butyl-5-(4-cyclohexyloxy-phenyl)-pyridazin-3-yl]-(3-dimethylaminomethyl-4-hydroxyoxy-piperidin-1-yl)-methanone dihydrochloride]",5.66,5.76
"CCCCc1nnc(C(=O)N[C@@H]2CN3CCC2CC3)cc1-c1ccc(OC2CCCCC2)cc1 [Example 85, (S)-6-Butyl-5-(4-cyclohexyloxy-phenyl)-pyridazine-3-carboxylic acid (1-aza-bicyclo[2.2.2]oct-3-yl)-amide dihydrochloride]",5.83,5.71
"CCCCc1nnc(C(=O)N[C@H]2CN3CCC2CC3)cc1-c1ccc(OCc2ccccc2)cc1 [Example 83, 5-(4-Benzyloxy-phenyl)-6-butyl-pyridazine-3-carboxylic acid (R)-(1-aza-bicyclo[2.2.2]oct-3-yl)-amide dihydrochloride]",5.93,5.95
"CCCCc1nnc(C(=O)NCCN2CCC(O)CC2)cc1-c1ccc(OC2CCCCC2)cc1 [Example 93, 6-Butyl-5-(4-cyclohexyloxy-phenyl)-pyridazine-3-carboxylic acid [2-(4-hydroxy-piperidin-1-yl)-ethyl]-amide dihydrochloride]",5.77,5.60
"CCCCc1nnc(O[C@H]2CC[C@H](NC)CC2)cc1-c1ccc(OC2CCCCC2)cc1 [Example 37, {4-[6-Butyl-5-(4-cyclohexyloxy-phenyl)-pyridazin-3-yloxy]-cyclohexyl}-methyl-amine dihydrochloride]",5.73,5.78
"CCCCc1nnc(OCC2CN(C)C2)cc1-c1ccc(OCc2ccccc2)cc1 [Example 9, 4-(4-Benzyloxy-phenyl)-3-butyl-6-(1-methyl-azetidin-3-ylmethoxy)-pyridazine dihydrochloride]",5.57,5.50
"CCCCc1nnc(OC2CCN(C)CC2)cc1-c1ccc(OCc2ccccc2)cc1 [Example 1, 4-(4-enzyloxy-phenyl)-3-butyl-6-(1-methyl-piperidin-4-yloxy)-pyridazine dihydrochloride]",6.02,5.96
"CCCCc1nnc(C(=O)NC[C@H]2CCCN2CC)cc1-c1ccc(OC2CCCCC2)cc1 [Example 91, 6-Butyl-5-(4-cyclohexyloxy-phenyl)-pyridazine-3-carboxylic acid ((R)-1-ethyl-pyrrolidin-2-ylmethyl)-amide dihydrochloride]",5.94,5.86
"CCCCc1nnc(O[C@H]2C[C@H]3CC[C@@H](C2)N3C)cc1-c1ccc(OC2CCCCC2)cc1 [Example 27, endo-3-[6-Butyl-5-(4-cyclohexyloxy-phenyl)-pyridazin-3-yloxy]-8-methyl-8-aza-bicyclo[3.2.1]octane dihydrochloride]",5.57,5.60
"CCCCc1nnc(C(=O)N[C@H]2CCN(C)C[C@H]2O)cc1-c1ccc(OC2CCCCC2)cc1 (racemic) [Example 112, (±)-cis-6-Butyl-5-(4-cyclohexyloxy-phenyl)-pyridazine-3-carboxylic acid (3-hydroxy-1-methyl-piperidin-4-yl)-amide dihydrochloride]",5.84,5.83

# The remaining lines, values ahead:
pIC50 [1],pIC50 [2],Structure (SMILES)
5.67,5.75,"CCCCc1nnc(OC2CCN(C)CC2)cc1-c1ccc(OC2CCCCC2)c(-c2ncco2)c1 [Example 65, 3-Butyl-4-(4-cyclohexyloxy-3-oxazol-2-yl-phenyl)-6-(1-methyl-piperidin-4-yloxy)-pyridazine dihydrochloride salt]"
5.76,5.63,"CCCCc1nnc(O[C@@H]2CCN(C)C2)cc1-c1ccc(OC2CCCCC2)cc1 [Example 29, 3-Butyl-4-(4-cyclohexyloxy-phenyl)-6-((R)-1-methyl-pyrrolidin-3-yloxy)-pyridazine dihydrochloride]"
5.44,5.30,"CCCCc1nnc(OC2CCN(C)CC2)cc1-c1ccc(OC2CCCCC2)c(NC(C)=O)c1 [Example 62, N-{5-[3-butyl-6-(1-methyl-piperidin-4-yloxy)-pyridazin-4-yl]-2-cyclohexyloxy-phenyl}-acetamide dihydrochloride]"
5.87,5.82,"CCCCc1nnc(OC2CCN(CCc3nnn(C)n3)CC2)cc1-c1ccc(OC2CCCCC2)cc1 [Example 21, 3-Butyl-4-(4-cyclohexyloxy-phenyl)-6-{1-[2-(2-methyl-2H-tetrazol-5-yl)-ethyl]-piperidin-4-yloxy}-pyridazine dihydrochloride]"
5.66,5.74,"CCCCc1nnc(O[C@H]2CCN(C)C[C@H]2F)cc1-c1ccc(OC2CCCCC2)cc1 (racemic) [Example 42, (±)-cis-3-Butyl-4-(4-cyclohexyloxy-phenyl)-6-(3-fluoro-1-methylpiperidin-4-yloxy)-pyridazine dihydrochloride]"
5.69,5.60,"CCCCc1nnc(OC2CCN(C)CC2)cc1-c1ccc(OC2CCCCC2)c(N2CCCC2=O)c1 [Example 68, 1-{5-[3-Butyl-6-(1-methyl-piperidin-4-yloxy)-pyridazin-4-yl]-2-cyclohexyloxy-phenyl}-pyrrolidin-2-one dihydrochloride]"
6.14,6.10,"CCCCc1nnc(OC2CCN(C)CC2)cc1-c1ccc(OC2CCCCC2)c(-c2cnn(C)c2)c1 [Example 69, 3-Butyl-4-[4-cyclohexyloxy-3-(1-methyl-1H-pyrazol-4-yl)-phenyl]-6-(1-methyl-piperidin-4-yloxy)-pyridazine dihydrochloride]"
6.08,6.17,"CCCCc1nnc(OC2CCN(C)CC2)cc1-c1ccc(OC2CCCCC2)c(N(CC(C)C)C(C)=O)c1 [Example 63, N-{5-[3-butyl-6-(1-methyl-piperidin-4-yloxy)-pyridazin-4-yl]-2-cyclohexyloxy-phenyl}-N-isobutyl-acetamide dihydrochloride]"

# Source: US9045461B2, “Phenyl-heteroaryl derivatives and methods of use thereof” (TransTech Pharma, LLC, priority 2010, dated 2015)
